The subject of one assay is MDA-MB-453. Description: Antiproliferative activity against human MDA-MB-453 cells assessed as reduction in cell growth after 72 hrs by MTT assay. It is filed as functional, cell-based. The settings on record: MDA-MB-453, 72 h. In general terms: Formazan colour is commonly taken as a measure of viable cells.
The subject of the next assay is CAMA-1. Nature of the assay: Antiproliferative activity against human CAMA-1 cells assessed as cell growth inhibition. It is filed as functional, cell-based.
For another assay, the system named is H4. Nature of the assay: Antiproliferative activity against human H4 cells assessed as cell growth inhibition. It is filed as functional, cell-based.
A further assay has as its system Bel-7402. Nature of the assay: Cytotoxicity against human Bel-7402 cells assessed as reduction in cell viability measured after 72 hrs by MTT assay. Type of assay: functional, cell-based. Conditions: Bel-7402, 72 h.
The next assay deals with RPMI-8226. Description: Growth inhibition of human RPMI-8226 cells. Type of assay: functional.
A further assay relates to CCRF-CEM. Description: Growth inhibition of human CCRF-CEM cells. Type of assay: functional.
The test system of assay [1] is HeLa. Nature of the assay: Antiproliferative activity against human HeLa cells assessed as reduction in cell growth. Type of assay: functional, cell-based.
Assay [2] can be described thus: Antioxidant activity assessed as DPPH radical scavenging activity. Type of assay: functional. In general terms: The DPPH test is a chemical assay of radical scavenging.
Another assay has as its system SW480. Nature of the assay: Cytotoxicity against human SW480 cells assessed as cell growth inhibition. It is filed as functional, cell-based.
The subject of a further assay is HL-60. Nature of the assay: Cytotoxicity against human HL-60 cells assessed as reduction in cell viability incubated for 48 hrs by MTT assay. Type of assay: functional, cell-based. Conditions: HL-60, 48 h.
Assay [3] concerns MCF7. Description: Cytotoxicity against human MCF7 cells assessed as reduction in cell growth. Type of assay: functional, cell-based.
Assay [4] can be described thus: Cytotoxicity against human A549 cells assessed as cell growth inhibition measured after 24 hrs by MTT assay. It is filed as functional, cell-based.
The next assay deals with SMMC-7721. Description: Cytotoxicity against human SMMC-7721 cells assessed as reduction in cell viability incubated for 48 hrs by MTT assay. Type of assay: functional, cell-based. The settings on record: SMMC-7721, 48 h.
The test system of assay [5] is MCF7. Nature of the assay: Cytotoxicity against human MCF7 cells assessed as reduction in cell viability after 48 hrs by SRB assay. Type of assay: functional, cell-based. Conditions: MCF7, 48 h. In general terms: The SRB assay estimates cell density from bound dye.
The next assay deals with A549. Nature of the assay: Antiproliferative activity against human A549 cells assessed as reduction in cell viability by MTT assay. Type of assay: functional, cell-based.
In another assay the target is Alpha glucosidase (Homo sapiens, UniProt O43451+P10253+P14410+Q2M2H8). Nature of the assay: Inhibition of alpha glucosidase (unknown origin) measured after 60 mins. It is filed as protein assay.
In assay [6] the test system is Human immunodeficiency virus 1. Description: Antiviral activity against HIV-1 harboring integrase L74M mutant. It is filed as functional, organism-based.
A further assay deals with HT-29. Nature of the assay: Antiproliferative activity against human HT-29 cells assessed as inhibition of cell proliferation by MTT assay. It is filed as functional, cell-based.
The test system of assay [7] is HeLa. Description: Antiproliferative activity against human HeLa cells assessed as inhibition of cell growth incubated for 72 hrs by MTT assay. It is filed as functional, cell-based.
Assay [8] has as its system MCF7. Nature of the assay: Antiproliferative activity against human MCF7 cells assessed as inhibition of cell growth after overnight incubation by MTT assay. Type of assay: functional, cell-based.
For assay [9], the system named is HeLa. Description: Cytotoxicity against human HeLa cells assessed as reduction in cell viability. It is filed as functional, cell-based.
The next assay concerns Bacillus subtilis. Description: Antibacterial activity against Bacillus subtilis assessed as reduction in microbial growth. Type of assay: functional.
The next assay relates to Staphylococcus aureus. Nature of the assay: Antibacterial activity against Staphylococcus aureus assessed as reduction in microbial growth. It is filed as functional.
The subject of the next assay is Escherichia coli. Description: Antibacterial activity against Escherichia coli assessed as reduction in bacterial cell viability. Type of assay: functional.
The next assay relates to Klebsiella pneumoniae. Nature of the assay: Antibacterial activity against Klebsiella pneumoniae assessed as reduction in bacterial growth by broth microdilution method. It is filed as functional.
Another assay has as its system Candida albicans. Nature of the assay: Antibacterial activity against Candida albicans assessed as reduction in bacterial growth. Type of assay: functional.
For another assay, the system named is Fusarium oxysporum. Nature of the assay: Antifungal activity against Fusarium oxysporum assessed as inhibition of fungal growth. It is filed as functional.
The next assay concerns Aspergillus niger. Description: […] against Aspergillus niger assessed as […] incubated for 24 hrs by agar disc diffusion assay. Type of assay: functional.
Assay [10] deals with MCF7. Nature of the assay: Antiproliferative activity against human MCF7 cells assessed as reduction in cell viability incubated for 120 hrs by MTT assay. It is filed as functional, cell-based. The settings on record: MCF7, 120 h.

What is called IC50 is the concentration at which inhibition is half-maximal. One may read the GI50 as the concentration giving 50% growth inhibition. Low readings indicate greater sensitivity of the cells, high ones lower sensitivity of the cells. As a reminder, the MIC is the smallest concentration in the dilution series that meets the test's criterion for growth inhibition.

With `CC1(C)CCC(C)(C)c2cc(C(=O)/C=C/c3c[nH]c4ccccc34)ccc21`, the IC50 in the assay on MDA-MB-453 and in the assay with CAMA-1 was below 0.01 µM in each case.

As for `CC1=C(O)C(=O)C=C2C1=CC=C1[C@@]2(C)CC[C@@]2(C)[C@@H]3C[C@](C)(C(=O)O)CC[C@]3(C)CC[C@]12C` [CELASTROL], the figures for the IC50 in the assay with H4 and with Bel-7402 were 2.09 µM and 1.55 µM, respectively.

On to `C=C1C(=O)O[C@H]2[C@H]1CC1C(COC(=O)c3c[nH]c4ccccc34)=CCC[C@@]3(C)O[C@@]123` (stereo partly specified), for which the GI50 in the assay on RPMI-8226 worked out at 0.04 µM; in the assay on CCRF-CEM, 0.05 µM.

Turning to `COc1cc([C@@H]2c3cc4c(cc3[C@H](OC(=O)c3c[nH]c5ccccc35)[C@H]3COC(=O)[C@H]23)OCO4)cc(OC)c1OC`, in the assay with HeLa [1], the IC50 turned out to be 2.2 µM.

Consider `O=C1O[C@H]([C@@H](O)CO)C([O-])=C1O.[Na+]` [SODIUM ASCORBATE], for which the IC50 in [2] came out at 12.8 µM.

On to `COC(=O)[C@]1(C)CC[C@]2(C)CC[C@]3(C)C4=CC(c5cn(C)c6cc(Cl)ccc56)=C5C(=CC(OC)C(OC)=C5C)[C@]4(C)CC[C@@]3(C)[C@@H]2C1` (stereo partly specified), for which the IC50 came to 2.03 µM with H4 and 0.01 µM with Bel-7402.

Consider `COC(=O)C1=CO[C@@H](OC)[C@@H]2C(C(NCCc3c[nH]c4ccccc34)NCCc3c[nH]c4ccccc34)=CC[C@H]12`, for which the IC50 with SW480 is 2.53 µM; in the assay with HL-60, 0.9 µM; with MCF7 [3], 3.1 µM; in [4], 3.64 µM; with SMMC-7721, 3.52 µM.

Regarding `C[C@@H]1CC[C@H]2[C@@H](C)C(OC(=O)c3cc4ccccc4[nH]3)O[C@@H]3O[C@@]4(C)CC[C@@H]1[C@]32OO4` (stereo partly specified), the IC50 in the assay with MCF7 [5] is 6.78 µM; with A549 it was 12.9 µM.

Consider `C=C(C)[C@@H]1CC[C@]2(C(=O)NCC(=O)O)CC[C@]3(C)[C@H](CC[C@@H]4[C@@]5(C)Cc6c([nH]c7ccccc67)C(C)(C)[C@@H]5CC[C@]43C)[C@@H]12`, for which the IC50 against Alpha glucosidase is 1.8 µM.

In the case of `COC(=O)[C@]1(C)CC[C@]2(C)CC[C@]3(C)C4=CC(c5c[nH]c6cc(C)ccc56)=C5C(=CC(OC)C(OC)=C5C)[C@]4(C)CC[C@@]3(C)[C@@H]2C1` (stereo partly specified), the IC50 with Bel-7402 is 0.02 µM.

As for `C=C(C)[C@@H]1CC[C@]2(C(=O)N3CCN(C(=O)/C=C/c4ccc5[nH]ccc5c4)CC3)CC[C@]3(C)[C@H](CC[C@@H]4[C@@]5(C)CC[C@H](OC(=O)CC(C)(C)C(=O)O)C(C)(C)[C@@H]5CC[C@]43C)[C@@H]12`, the IC50 in [6] is 0.05 µM.

Turning to `CCOC(=O)c1[nH]c2cc(OC)ccc2c1/C=C/C(=O)c1cc(OC)c(OC)c(OC)c1`, the IC50 worked out at 0.13 µM with HT-29, 0.84 µM in the assay on HeLa [7] and 0.24 µM with MCF7 [8].

Take `CCOC(=O)c1[nH]c2ccccc2c1/C=C/C(=O)c1cc(OC)c(OC)c(OC)c1`: the IC50 with HT-29 amounted to 0.44 µM; in the assay with HeLa [7], 2.1 µM; with MCF7 [8], 1.8 µM.

As to `COc1ccc(/C=C\c2cc(OC)c(OC)c(OC)c2)cc1OC(=O)c1cccc(-n2cc(CCOC(=O)[C@H](N)Cc3cn(C)c4ccccc34)nn2)c1`, the IC50 in the assay on HeLa [9] was found to be 0.07 µM.

With `C=C1C(=O)O[C@H]2[C@H]1CC1C(COC(=O)c3cc4ccccc4[nH]3)=CCC[C@@]3(C)O[C@@]123` (stereo partly specified), the GI50 with RPMI-8226 is 0.26 µM; in the assay with CCRF-CEM, 0.28 µM.

As to `COc1ccc2[nH]c(C(=O)OC3O[C@@H]4O[C@@]5(C)CC[C@H]6[C@H](C)CC[C@@H]([C@H]3C)[C@@]46OO5)cc2c1` (stereo partly specified), the IC50 came to 14.5 µM with MCF7 [5] and 13.4 µM with A549.

On to GENTAMICIN, for which the MIC in the assay on Bacillus subtilis is 28 µg/mL; in the assay with Staphylococcus aureus, 26 µg/mL; in the assay with Escherichia coli, 26 µg/mL; with Klebsiella pneumoniae it was 26 µg/mL; in the assay on Candida albicans, 28 µg/mL; with Fusarium oxysporum, 27 µg/mL. The MIC in the assay with Aspergillus niger was 27 µg/mL.

For the compound `C=C(C)[C@@H]1CC[C@]2(C(=O)O)CC[C@]3(C)[C@H](CC[C@@H]4[C@@]5(C)CC[C@H](OC(=O)CC(C)(C)C(=O)O)C(C)(C)[C@@H]5CC[C@]43C)[C@@H]12` [BEVIRIMAT], the IC50 in assay [6] amounted to 0.065 µM.

For `COc1ccc2[nH]cc(C(=O)C(=O)N[C@H]3c4cc5c(cc4[C@@H](c4cc(OC)c(OC)c(OC)c4)[C@H]4C(=O)OC[C@@H]43)OCO5)c2c1`, the IC50 with MCF7 [10] and with HeLa [1] was 1.96 µM each time.

For the origin of these results see ChEMBL document CHEMBL5356986, “Research status of indole-modified natural products” (RSC Med Chem, 2023).
